“And” between values parts separate entries of the source, which are not always exact repeats. Identical values can stand only once. Toxic doses and inconclusive results are not listed. The calls were made as follows: active = survival T/C of 150% or more; inactive = T/C below 125% in these data.
Test system: P388 leukemia ip, CD2F1 mice, survival T/C
Test: NCI In Vivo Anticancer Drug Screen. Data for tumor model P388 Leukemia (intraperitoneal) in CD2F1 (CDF1) mice
Conditions: endpoint: median survival time, higher = longer survival
How it was run: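 Mice carrying the transplanted tumor received test compound or vehicle. Survival was recorded in each group, and the value is the treated-group measurement divided by that of the vehicle-treated control group.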

[1] = dose: 50.0 mg/kg/injection, schedule: Q01DX009 (ip), vehicle: saline with Tween-80
[2] = dose: 100.0 mg/kg/injection, schedule: Q01DX009 (ip), vehicle: saline with Tween-80
[3] = dose: 200.0 mg/kg/injection, schedule: Q01DX009 (ip), vehicle: saline with Tween-80
[4] = dose: 25.0 mg/kg/injection, schedule: Q01DX005 (ip), vehicle: Klucel (hydroxypropylcellulose) (HPC)
[5] = dose: 50.0 mg/kg/injection, schedule: Q01DX009 (ip), vehicle: saline
[6] = dose: 100.0 mg/kg/injection, schedule: Q01DX009 (ip), vehicle: saline
[7] = dose: 60.0 mg/kg/injection, schedule: Q01DX005 (ip), vehicle: Klucel (hydroxypropylcellulose) (HPC)
[8] = dose: 120.0 mg/kg/injection, schedule: Q01DX005 (ip), vehicle: Klucel (hydroxypropylcellulose) (HPC)
[9] = dose: 240.0 mg/kg/injection, schedule: Q01DX005 (ip), vehicle: Klucel (hydroxypropylcellulose) (HPC)
[10] = dose: 200.0 mg/kg/injection, schedule: Q01DX009 (ip), vehicle: saline
[11] = dose: 60.0 mg/kg/injection, schedule: Q01DX005 (ip), vehicle: saline with Tween-80
[12] = dose: 120.0 mg/kg/injection, schedule: Q01DX005 (ip), vehicle: saline with Tween-80
[13] = dose: 240.0 mg/kg/injection, schedule: Q01DX005 (ip), vehicle: saline with Tween-80
[14] = dose: 12.5 mg/kg/injection, schedule: Q01DX009 (ip), vehicle: saline with Tween-80
[15] = dose: 25.0 mg/kg/injection, schedule: Q01DX009 (ip), vehicle: saline with Tween-80
[16] = dose: 50.0 mg/kg/injection, schedule: Q01DX005 (ip), vehicle: Klucel (hydroxypropylcellulose) (HPC)
[17] = dose: 100.0 mg/kg/injection, schedule: Q01DX005 (ip), vehicle: Klucel (hydroxypropylcellulose) (HPC)
[18] = dose: 200.0 mg/kg/injection, schedule: Q01DX005 (ip), vehicle: Klucel (hydroxypropylcellulose) (HPC)

Measured: T/C

CNC(=O)NC1NC(=O)N(C)C1=O (stereo not given)
inactive: [1] 100 % of control | [2] 99 % of control | [3] 100 % of control

Oc1ccc(/C=N/NC(=S)Nc2ccccc2)nc1
inactive: dose: 265.0 mg/kg/injection, schedule: Q04DX003 (ip), vehicle: Klucel (hydroxypropylcellulose) (HPC) 114 % of control | dose: 400.0 mg/kg/injection, schedule: Q04DX003 (ip), vehicle: Klucel (hydroxypropylcellulose) (HPC) 123 % of control | dose: 600.0 mg/kg/injection, schedule: Q04DX003 (ip), vehicle: Klucel (hydroxypropylcellulose) (HPC) 117 % of control

Cc1cc(C(=O)Nc2ccc(NC3=NCCN3)cc2)c(C)cc1C(=O)Nc1ccc(NC2=NCCN2)cc1
inactive: dose: 12.5 mg/kg/injection, schedule: Q01DX005 (ip), vehicle: Klucel (hydroxypropylcellulose) (HPC) 101 % of control | [4] 106 % of control

COC(=O)C1=C/C=C\CN(CCC2OCC(CBr)O2)/C=C\1C(=O)OC (stereo not given)
inactive: dose: 100.0 mg/kg/injection, schedule: Q01DX001 (ip), vehicle: alcohol 95 % of control | dose: 200.0 mg/kg/injection, schedule: Q01DX001 (ip), vehicle: alcohol 100 % of control | dose: 400.0 mg/kg/injection, schedule: Q01DX001 (ip), vehicle: alcohol 100 % of control

Cc1nn(CCO)c(-c2ccccc2)c1-n1on1-c1c(C)nn(CCO)c1-c1ccccc1
inactive: dose: 25.0 mg/kg/injection, schedule: Q01DX009 (ip), vehicle: saline 97 % of control | [5] 98 % of control | [6] 98 % of control

O=C(NC(=O)C(F)(F)C(F)(F)C(F)(F)F)Nc1ccc(F)c(Cl)c1
inactive: [1] 107 % of control | [2] 99 % of control | [3] 105 % of control

COc1ccc2c(c1OC)C(CC(C)=O)N1CCc3cc4c(cc3C1C2=O)OCO4 (stereo not given)
inactive: [7] 100 % of control | [8] 92 % of control | [9] 88 % of control

CCOC(=O)c1cnc(NCCCCCCCCNc2ncc(C(=O)OCC)c(=O)[nH]2)[nH]c1=O
inactive: [5] 103 % of control | [6] 102 % of control | [10] 90 % of control and 97 % of control

CCN1c2ccccc2SC1CC1=C(O)C(CC2Sc3ccccc3N2CC)=C1O (stereo not given)
inactive: [7] 91 % of control | [8] 96 % of control | [9] 89 % of control

O=[N+]([O-])c1ccc(C(Cl)Cc2ccc(Cl)cc2)cc1 (stereo not given)
inactive: [11] 102 % of control | [12] 90 % of control | [13] 94 % of control

CCCc1cc(=O)[nH]c(Sc2c([N+](=O)[O-])ncn2C)n1
inactive: [1] 103 % of control | [2] 95 % of control | [3] 91 % of control

N#CC12OC1(Cl)CCCC2(Cl)Cl (stereo not given)
inactive: [1] 95 % of control | [2] 95 % of control | [3] 86 % of control

O/N=C\c1cc2ccccc2c[n+]1Cc1ccc2ccc3cccc4ccc1c2c34
inactive: dose: 6.25 mg/kg/injection, schedule: Q01DX005 (ip), vehicle: saline with Tween-80 108 % of control | dose: 12.5 mg/kg/injection, schedule: Q01DX005 (ip), vehicle: saline with Tween-80 108 % of control

CC1(C)SC(=O)N(CCC#CCCc2ccccc2)C1=O
inactive: [7] 102 % of control | [8] 100 % of control | [9] 92 % of control

Cc1ccc(C#N)s1
inactive: dose: 3.12 mg/kg/injection, schedule: Q01DX009 (ip), vehicle: saline with Tween-80 104 % of control | dose: 6.25 mg/kg/injection, schedule: Q01DX009 (ip), vehicle: saline with Tween-80 103 % of control | [14] 102 % of control | [15] 95 % of control

C/C=C/CC1(C)N=C1c1ccccc1 (stereo not given)
inactive: dose: 100.0 mg/kg/injection, schedule: Q01DX001 (ip), vehicle: Klucel (hydroxypropylcellulose) (HPC) 99 % of control | dose: 200.0 mg/kg/injection, schedule: Q01DX001 (ip), vehicle: Klucel (hydroxypropylcellulose) (HPC) 99 % of control | dose: 400.0 mg/kg/injection, schedule: Q01DX001 (ip), vehicle: Klucel (hydroxypropylcellulose) (HPC) 102 % of control

COc1ccccc1NC(=O)C(N=Nc1ccc(-c2nc3ccc(C)c(S(=O)(=O)O)c3s2)cc1S(=O)(=O)O)C(C)=O (stereo not given)
inactive: [5] 104 % of control | [6] 105 % of control | [10] 109 % of control

Nc1ccc2cc3ccccc3cc2c1
inactive: dose: 5.0 mg/kg/injection, schedule: Q01DX009 (ip), vehicle: saline with Tween-80 95 % of control | dose: 5.0 mg/kg/injection, schedule: Q04DX003 (ip), vehicle: saline with Tween-80 95 % of control | dose: 10.0 mg/kg/injection, schedule: Q01DX009 (ip), vehicle: saline with Tween-80 104 % of control | dose: 10.0 mg/kg/injection, schedule: Q04DX003 (ip), vehicle: saline with Tween-80 91 % of control | [14] 100 % of control | dose: 20.0 mg/kg/injection, schedule: Q01DX009 (ip), vehicle: saline with Tween-80 118 % of control | dose: 20.0 mg/kg/injection, schedule: Q04DX003 (ip), vehicle: saline with Tween-80 112 % of control | [15] 109 % of control | dose: 40.0 mg/kg/injection, schedule: Q01DX009 (ip), vehicle: saline with Tween-80 118 % of control | dose: 40.0 mg/kg/injection, schedule: Q04DX003 (ip), vehicle: saline with Tween-80 112 % of control | [1] 109 % of control

CC1CCn2c(nc3c2c(=O)n(C)c(=O)n3C)N1 (stereo not given)
inactive: [11] 102 % of control and 100 % of control | [12] 93 % of control and 94 % of control | [13] 93 % of control and 91 % of control

NC(=NCc1ccncc1)N/N=C\c1ccnc2ccccc12
inactive: dose: 60.0 mg/kg/injection, schedule: Q01DX005 (ip), vehicle: saline 107 % of control | dose: 120.0 mg/kg/injection, schedule: Q01DX005 (ip), vehicle: saline 106 % of control

O=[N+]([O-])c1ccc(SCN2CCCCC2)cc1
inactive: [1] 104 % of control | [2] 104 % of control | [3] 118 % of control

CNc1cccc2c1C(=O)c1ccccc1C2=O
inactive: dose: 50.0 mg/kg/injection, schedule: Q04DX003 (ip), vehicle: saline with Tween-80 93 % of control | dose: 100.0 mg/kg/injection, schedule: Q04DX003 (ip), vehicle: saline with Tween-80 91 % of control | dose: 200.0 mg/kg/injection, schedule: Q04DX003 (ip), vehicle: saline with Tween-80 97 % of control | dose: 400.0 mg/kg/injection, schedule: Q04DX003 (ip), vehicle: saline with Tween-80 90 % of control

CCNCCNc1cc(O)c2c(c1O)C(=O)c1ccccc1C2=O
inactive: [4] 101 % of control and 102 % of control | [16] 110 % of control and 111 % of control | [17] 111 % of control and 112 % of control | [18] 122 % of control

Cn1c2c(c(=O)c3cc(O)ccc31)CC(O)C(C)(C)O2 (stereo not given)
inactive: [16] 102 % of control | [17] 94 % of control | [18] 86 % of control

CC1=CC=c2ccc3c(c2[N-]1)[N-]C(C)=CC=3.CC1=CC=c2ccc3c(c2[N-]1)[N-]C(C)=CC=3.O=[N+]([O-])O.[Cu+]
inactive: dose: 6.25 mg/kg/injection, schedule: Q04DX002 (ip), vehicle: suspension in saline 101 % of control | dose: 12.5 mg/kg/injection, schedule: Q04DX002 (ip), vehicle: suspension in saline 103 % of control

COC(=O)C1=C(N)SS/C1=C/[N+](=O)[O-]
inactive: [16] 106 % of control | [17] 103 % of control | [18] 101 % of control
